Measured values reported in ChEMBL document CHEMBL6121019, “Design, synthesis and biological evaluation of bisnoralcohol derivatives as novel IRF4 inhibitors for the treatment of multiple myeloma” (Eur J Med Chem, 2025).
pIC50: −log10 of the molar value. Calls of active or inactive are those of the source. The rule behind the calls is not given here.

Assays:
[1] = system: NCI-H929; test: Effect on IRF4 expression in human NCI-H929 cells with siRNA mediated IRF4 knockdown by Western blot analysis; type: functional, cell-based
[2] = system: NCI-H929; test: Antiproliferative activity against human NCI-H929 cells with siRNA mediated IRF4 knockdown measured upto 5 days by MTS assay; type: functional, cell-based; conditions: time <= 5.0 day
[3] = system: MM.1R; test: Antiproliferative activity against human MM1.R cells with siRNA mediated IRF4#1 knockdown at 0.125 to 1 uM measured upto 5 days by MTS assay; type: functional, cell-based; conditions: dose 0.125-1 µM, time <= 5.0 day
[4] = system: NCI-H929; test: Effect on IRF4 expression in human NCI-H929 cells by Western blot analysis; type: functional, cell-based
[5] = system: HAF; test: Effect on IRF4 expression in human HAF cells by Western blot analysis; type: functional, cell-based
[6] = system: NCI-H929; test: Antiproliferative activity against human NCI-H929 cells assessed as inhibition of 3D clone forming ability measured after 2 to 3 weeks; type: functional, cell-based; conditions: dose 0.125-1 µM, time 2-3 weeks
[7] = system: NCI-H929; test: Downregulation of E2F5 expression in human NCI-H929 cells measured after 24 hrs by qRT-PCR analysis; type: functional, cell-based; conditions: dose 0.125-1 µM
[8] = system: NCI-H929; test: Downregulation of CMYC expression in human NCI-H929 cells measured after 24 hrs by qRT-PCR analysis; type: functional, cell-based; conditions: dose 0.125-1 µM
[9] = system: NCI-H929; test: Downregulation of HK2 expression in human NCI-H929 cells measured after 24 hrs by qRT-PCR analysis; type: functional, cell-based; conditions: dose 0.125-1 µM
[10] = system: MM.1R; test: Downregulation of CANX expression in human MM1.R cells measured after 24 hrs by qRT-PCR analysis; type: functional, cell-based; conditions: dose 0.125-1 µM
[11] = system: MM.1R; test: Downregulation of E2F5 expression in human MM1.R cells measured after 24 hrs by qRT-PCR analysis; type: functional, cell-based; conditions: dose 0.125-1 µM
[12] = system: MM.1R; test: Downregulation of CMYC expression in human MM1.R cells measured after 24 hrs by qRT-PCR analysis; type: functional, cell-based; conditions: dose 0.125-1 µM
[13] = system: MM.1R; test: Downregulation of Blimp1 expression in human MM1.R cells measured after 24 hrs by qRT-PCR analysis; type: functional, cell-based; conditions: dose 0.125-1 µM
[14] = system: MM.1R; test: Inhibition of ERK phosphorylation level in human MM1.R cells at 0.1 to 1 uM by Western blot analysis; type: functional, cell-based; conditions: dose 0.1-1 µM
[15] = system: NCI-H929; test: Induction of DNA damage in human NCI-H929 cells assessed as increase in gammaH2AX expression at 0.1 to 1 uM by Western blot analysis; type: functional, cell-based; conditions: dose 0.1-1 µM
[16] = system: NCI-H929; test: Induction of cell cycle arrest in human NCI-H929 cells assessed as accumulation of cells at G1 phase at 0.25 uM measured after 24 hrs by flow cytometry analysis (reference value: 54.12%); type: functional
[17] = system: NCI-H929; test: Induction of cell cycle arrest in human NCI-H929 cells assessed as accumulation of cells at S phase at 0.25 uM measured after 24 hrs by flow cytometry analysis (reference value: 32.14%); type: functional
[18] = system: NCI-H929; test: Induction of cell cycle arrest in human NCI-H929 cells assessed as accumulation of cells at G2 phase at 0.125 uM measured after 24 hrs by flow cytometry analysis (reference value: 13.37%); type: functional
[19] = system: NCI-H929; test: Induction of cell cycle arrest in human NCI-H929 cells assessed as inhibition of CDC2 protein expression at 0.1 to 1 uM; type: functional, cell-based; conditions: dose 0.1-1 µM
[20] = system: NCI-H929; test: Induction of cell cycle arrest in human NCI-H929 cells assessed as inhibition of cyclin B1 protein expression at 0.1 to 1 uM; type: functional, cell-based; conditions: dose 0.1-1 µM
[21] = system: NCI-H929; test: Induction of cell cycle arrest in human NCI-H929 cells assessed as inhibition of CMYC protein expression at 0.1 to 1 uM; type: functional, cell-based; conditions: dose 0.1-1 µM
[22] = system: MM.1R; test: Induction of cell cycle arrest in human MM1.R cells assessed as inhibition of CDC2 protein expression at 0.1 to 1 uM; type: functional, cell-based; conditions: dose 0.1-1 µM
[23] = system: MM.1R; test: Induction of cell cycle arrest in human MM1.R cells assessed as inhibition of cyclin B1 protein expression at 0.1 to 1 uM; type: functional, cell-based; conditions: dose 0.1-1 µM
[24] = system: MM.1R; test: Induction of cell cycle arrest in human MM1.R cells assessed as inhibition of CMYC protein expression at 0.1 to 1 uM; type: functional, cell-based; conditions: dose 0.1-1 µM
[25] = Toxicity in Balb/C nude mouse assessed as changes in main organ at 12.5 to 25 mg/kg administered once daily and measured every three days for 34 days by H and E staining based analysis; type: organism-based; conditions: in vivo, 816 h, dose 12.5-25 mg/kg, time 34 day
[26] = Toxicity in Balb/C nude mouse assessed as side effects at 12.5 to 25 mg/kg administered once daily and measured every three days for 34 days by H and E staining based analysis; type: organism-based; conditions: in vivo, 816 h, dose 12.5-25 mg/kg, time 34 day
[27] = system: NCI-H929; test: Antitumor activity against human NCI-H929 cells xenografted in Balb/C nude mouse model assessed as reduction in Ki67 expression at 25 mg/kg by immunohistochemical staining based analysis; type: functional, organism-based
[28] = system: NCI-H929; test: Antitumor activity against human NCI-H929 cells xenografted in Balb/C nude mouse model assessed as inhibition of inhibition of cyclin D1 expression at 25 mg/kg by Western blot analysis; type: functional, organism-based
[29] = target: T1, Interferon regulatory factor 4 (Homo sapiens, UniProt Q15306); test: Inhibition of IRF4 (unknown origin) incubated for 1 hr by fluorescence polarization assay
T1 sequence (Q15306 whole entry): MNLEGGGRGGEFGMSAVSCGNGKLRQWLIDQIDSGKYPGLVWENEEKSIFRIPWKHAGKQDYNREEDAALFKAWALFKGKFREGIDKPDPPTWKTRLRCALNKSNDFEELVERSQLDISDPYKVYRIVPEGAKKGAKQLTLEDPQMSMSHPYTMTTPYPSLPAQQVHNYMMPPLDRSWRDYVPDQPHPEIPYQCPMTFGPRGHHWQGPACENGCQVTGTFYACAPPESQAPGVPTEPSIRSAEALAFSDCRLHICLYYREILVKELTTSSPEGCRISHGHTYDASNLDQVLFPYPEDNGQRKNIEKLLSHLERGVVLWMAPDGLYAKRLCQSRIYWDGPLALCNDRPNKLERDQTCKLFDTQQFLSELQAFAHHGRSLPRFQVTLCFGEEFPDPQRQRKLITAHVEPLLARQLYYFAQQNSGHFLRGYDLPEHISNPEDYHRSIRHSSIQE

[30] = Antiproliferative activity against human HAF cells assessed as inhibition of cell viability measured after 72 hrs by MTS assay; type: toxicity, cell-based
[31] = Antiproliferative activity against human HaCaT cells assessed as inhibition of cell viability measured after 72 hrs by MTS assay; type: toxicity, cell-based
[32] = Selectivity ratio IC50 for human RPMI-8226 cells to IC50 for human MM1.R cells; type: toxicity
[33] = Tmax in ICR mouse plasma at 1.0 mg/kg, iv; type: ADME, organism-based
[34] = AUC (0 to t) in ICR mouse plasma at 1.0 mg/kg, iv; type: ADME, organism-based
[35] = Apparent volume of distribution in ICR mouse plasma at 1.0 mg/kg, iv; type: ADME, organism-based; conditions: read-out: Vz
[36] = Terminal elimination half life in ICR mouse plasma at 1.0 mg/kg, iv; type: ADME, organism-based; conditions: read-out: beta t1/2 (converted)
[37] = Tmax in ICR mouse plasma at 10 mg/kg, po; type: ADME, organism-based
[38] = Cmax in ICR mouse plasma at 10 mg/kg, po; type: ADME, organism-based
[39] = Terminal elimination half life in ICR mouse plasma at 10 mg/kg, po; type: ADME, organism-based; conditions: read-out: beta t1/2 (converted)

COc1ccc(NC(=O)[C@@H](C)[C@H]2CC[C@H]3[C@@H]4C(=O)C=C5C(C)(C)C(=O)C(C#N)=C[C@]5(C)[C@H]4CC[C@]23C)cc1
Activity [1]: Active | Activity [2]: Active | Activity [3]: Active | Activity [4]: Active | Activity [5]: inactive | Activity [6]: Dose-dependent-effect | Activity [7]: Active | Activity [8]: Active | Activity [9]: Active | Activity [10]: Active | Activity [11]: Active | Activity [12]: Active | Activity [13]: Active | inhibition [14]: Active | Activity [15]: Active | Activity [16]: 60.31% | Activity [17]: 25.49% | Activity [18]: 11.45% | Activity [19]: Active | Activity [20]: Active | Activity [21]: Active | Activity [22]: Active | Activity [23]: Active | Activity [24]: Active | Activity [25]: Non-toxic | Activity [26]: Non-toxic | Activity [27]: Active | Activity [28]: Active | pIC50 [29]: 5.58 | IC50 at 72 h [30]: > 100 µM | IC50 at 72 h [31]: > 100 µM | Ratio IC50 [32]: 10.8 | Tmax [33]: 4.8 min | AUC(0-t) [34]: 81 ng·h/mL | Vd [35]: 20.8 L/kg | half-life [36]: 75 min | Tmax [37]: 31.8 min | Cmax [38]: 82 ng/mL | half-life [39]: 403 min
